# Tests used:
# children with ADHD [1] = test: Paired and single TMS of motor cortex measuring short interval cortical inhibition (SICI) before and after single drug doses; assay type: in vivo, human; conditions: for Cortical Inhibition (SICI), post-medication: 90 minutes later
# Method: Accordingly, sixteen children with ADHD, aged 8-17, are studied. Seven are homozygotes for the 10-repeat allele. Subjects are given single oral doses of 0.5 mg/kg methylphenidate and 1.0 mg/kg atomoxetine at visits separated by one week in a randomized, double-blind crossover design. Paired and single TMS are used to measure SICI before and after drug administration. Medication and genotype effects on SICI are estimated with repeated measures, mixed model regression. […] Some variation in ADHD medication-induced neurophysiological responses is explained by differences in the number of 3′-UTR, 10-repeat VNTR alleles in DAT1.
# (§1) The study is a randomized, double-blind, crossover design comparing the effects of single doses of atomoxetine (ATX) and methylphenidate (MPH). Sixteen patients (age 8-17 years, mean age=12, ±3; 2 girls) participate. Nine have TS. Medication doses are clinically relevant: approximately 0.5 mg/kg for MPH and 1.0 mg/kg for ATX, administered as follows:
# (§2) 1) subjects 20-29 kg→10 mg MPH, 20 mg ATX; 2) subjects 30-49 kg→20 mg MPH, 40 mg ATX; 3) subjects 50 kg and above→30 mg MPH, 60 mg ATX. Subjects and investigators are blind to the order of treatment throughout the study. The one-week interval between study visits is based on published pharmacokinetic data for single doses of ATX.
# Neurophysiological studies are performed as described by Gilbert et al. ((2006) Neuropsychopharmacology 31 :442-449). TMS is performed by an investigator blind to genotype and clinical ratings.
# Resting and active motor threshold (RMT and AMT) are measured using the method described in Mills and Nithi ((1997) Muscle and Nerve 20:570-576). SICI and intracortical facilitation (ICF) are measured with the Abductor Pollicis Brevis (APB) at rest, according to established paradigms (Kujirai et al. (1993) J. Physiol. 471:501-519; Ziemann et al. (1997) Electroencelphalogr. Clin. Neurophysiol. 105:430-437). SICI is measured with a conditioning pulse, 1% of stimulator output below AMT (˜70% of RMT), delivered 3 msec before a suprathreshold test pulse. ICF is measured with the conditioning pulse 10 msec before the test pulse. Twenty trials at each interval and 20 unconditioned test pulses are delivered in random order. SICI and ICF are expressed as the ratios of the mean motor evoked potential (MEP) amplitudes evoked by the pulse pairs divided by the mean amplitude of the MEP from the single test pulses.
# After baseline TMS testing, subjects are administered study medication, and all measurements are repeated 90 minutes later, consistent with expected peak serum drug levels. Each TMS session takes approximately 30 minutes.
# Primary analysis. The primary outcome of interest for this study is ADHD-medication, genotype, and medication*genotype effects on cortical inhibition (SICI). SICI measures are subjected to a mixed model, repeated measures analysis of variance using PROC MIXED. After assuring that baselines are not different and that there are no effects of order, we then model SICI=medication+DAT genotype+medication*genotype, combining baselines. Age and ADHD severity scores are also entered into the models as potential explanatory covariates. ICF is modeled in the same manner to determine if any effects are specific to cortical inhibition.
# Secondary analyses. The secondary outcome of interest is to compare ATX and MPH effects on cortical inhibition (SICI). Two repeated measure regressions are performed: 1) the baselines-combined model above, and 2) a day-of-visit, baseline-adjusted model. Genotypes are entered to estimate genotype-specific effects of ATX vs. MPH. The Tic phenotype is entered to estimate TIC*medication and TIC*ATX vs. TIC*MPH effects. In addition, using Spearman, correlations of changes in SICI and ICF are assessed for ATX and MPH, and for SICI and ADHD severity.
# children with ADHD [2] = test: Reported side effects after single drug dose and TMS; assay type: in vivo, human
# Method: as §1, §2
# ADHD patients = conditions: cited from earlier work
# children with ADHD [3] = conditions: single 10 mg dose, Moll et al. (2000); cited from earlier work
# [4] = DAT1 10-repeat homozygotes, single oral dose
# [5] = DAT 9, 10 genotype, single oral dose, baseline-adjusted estimate
# [6] = DAT 10, 10 genotype, single oral dose, baseline-adjusted estimate
# [7] = No Tics, single oral dose, baseline-adjusted estimate
# [8] = Tics, single oral dose, baseline-adjusted estimate
# [9] = all subjects, single oral dose ~1.0 mg/kg ATX or ~0.5 mg/kg MPH, adjusted for day-of-visit pre-treatment SICI, MEP amplitude ratio
# [10] = heterozygotes (single 10-repeat DAT1 allele), single oral dose
# [11] = individuals with ADHD and no TS, single oral dose
# [12] = patients with ADHD and TS, single oral dose
compound,measurement,setting,value
"CNCC[C@@H](Oc1ccccc1C)c1ccccc1 [ATX, atomoxetine]",Effect of medication on SICI,children with ADHD [1]; [4],slight decrease in SICI
same,"Cortical Inhibition (SICI), post-medication",children with ADHD [1]; [5],0.51
same,"Cortical Inhibition (SICI), post-medication",children with ADHD [1]; [6],0.66
same,"Cortical Inhibition (SICI), post-medication",children with ADHD [1]; [7],0.62
same,"Cortical Inhibition (SICI), post-medication",children with ADHD [1]; [8],0.56
same,"Cortical Inhibition (SICI), post-medication",children with ADHD [1]; [9],0.59
same,Effect of medication on SICI,children with ADHD [1]; [10],tend to increase (normalize) SICI
same,Effect of medication on SICI,"children with ADHD [1]; heterozygotes (single 10-repeat DAT1 allele), single oral dose, listed as Atomoxetine",increases (improves) SICI
same,Effect of medication on SICI,children with ADHD [1]; [11],decrease SICI
same,Effect of medication on SICI,children with ADHD [1]; [12],increase (normalize) SICI
same,Number of subjects reporting side effects,"children with ADHD [2]; both, human, in vivo",4 subjects
same,Side effect: headache (number of reports),"children with ADHD [2]; both, human, in vivo",3
same,Side effect: loss of appetite (number of reports),"children with ADHD [2]; both, human, in vivo",2
same,Side effect: nausea (number of reports),"children with ADHD [2]; both, human, in vivo",2
same,Side effect: numbness/tingling (number of reports),"children with ADHD [2]; both, human, in vivo",1
same,Side effect: scalp pain (number of reports),"children with ADHD [2]; both, human, in vivo",1
same,Side effect: stomach pain (number of reports),"children with ADHD [2]; both, human, in vivo",1
same,Severity rating of side effects,children with ADHD [2]; in vivo,mild
same,ADHD patients who do not respond to treatment (non-response rate),"ADHD patients; clinical evidence, Michelson et al. (2002)",approximately 40%
"COC(=O)C(c1ccccc1)C1CCCCN1 (stereo not shown) [MPH, methylphenidate]",Effect of medication on SICI,children with ADHD [1]; [4],slight decrease in SICI
same,"Cortical Inhibition (SICI), post-medication",children with ADHD [1]; [5],0.47
same,"Cortical Inhibition (SICI), post-medication",children with ADHD [1]; [6],0.61
same,"Cortical Inhibition (SICI), post-medication",children with ADHD [1]; [7],0.64
same,"Cortical Inhibition (SICI), post-medication",children with ADHD [1]; [8],0.44
same,"Cortical Inhibition (SICI), post-medication",children with ADHD [1]; [9],0.54
same,Effect of medication on SICI,children with ADHD [1]; [10],tend to increase (normalize) SICI
same,Effect of medication on SICI,children with ADHD [1]; [11],decrease SICI
same,Effect of medication on SICI,children with ADHD [1]; [12],increase (normalize) SICI
same,Severity rating of side effects,children with ADHD [2]; after drug/TMS,"mild, except for one child who reports a moderate headache"
same,Side effect: abdominal pain (number of reports),children with ADHD [2]; after drug/TMS,1
same,Side effect: arm/other pain (number of reports),children with ADHD [2]; after drug/TMS,2
same,Side effect: headache (number of reports),children with ADHD [2]; after drug/TMS,3
same,Side effect: hearing change (number of reports),children with ADHD [2]; after drug/TMS,1
same,Side effect: numbness/tingling (number of reports),children with ADHD [2]; after drug/TMS,1
same,Number of subjects reporting side effects,"children with ADHD [2]; of 16 subjects, after drug/TMS",6 subjects
same,Clinical response by DAT1 genotype,"ADHD patients; individuals with the DAT1 10/10 genotype, e.g. Cheon et al. (2005)",poorer clinical response
same,Effect on SICI,children with ADHD [3],significantly increase (normalize) SICI
